From patent US8481564B2, “Inhibitors of c-fms kinase” (Janssen Pharmaceutica, N.V., priority 2006, dated 2013)

How the values were obtained:
[1] = tested on: mouse bone-marrow derived macrophages; assay: CSF-1-driven mouse bone-marrow derived macrophages assay (BrDU incorporation); assay type: cell-based; conditions: BMDM; CSF-1 stimulated mouse bone-marrow derived macrophages, 30 hrs culture, BrDU incorporation ELISA; read-out: mCSF driven proliferation BMDM (Mouse)
Protocol: CSF-1-Driven Mouse Bone-Marrow Derived Macrophages Assay
Macrophages are derived by culturing mouse bone marrow in alpha-MEM supplemented with 10% FCS (fetal calf serum) and 50 ng/ml recombinant mouse CSF-1 in bacteriologic dishes. On the sixth day, macrophages are detached from dishes, washed, and resuspended to 0.1 million cells/ml in alpha-MEM containing 10% FCS. One hundred ul of cell suspension are distributed per well into 96 well culture plates. Wells are further supplemented with the addition of 50 ul media containing 15 ng/ml CSF-1, 3 uM Indomethacin, and 3× of a dilution series of test compounds. The cells are cultured for 30 hrs at 37° C. and 5% CO2. During the final six hours, cultures are supplemented with an additional 30 ul of media containing a 1:500 dilution of bromodeoxyuridine (BrDU). At the end of the culture period, the media is removed and replaced with […] of fixative solution for 30′@room temperature. The fixative is then dispelled from the plates and the plates allowed to air dry. Incorporation of BrDU into the fixed, dried cells is quantified using a specific ELISA (Cat X1327K) from Exalpha Corporation (Watertown Mass.). Background values are determined from wells without BrDU reagent. IC50 values are calculated based on signal from CSF-1 stimulated cells without compound present.

CSF-1R = CSF-1R (Homo sapiens (Human), UniProt P07333); assay: Fluorescence polarization competition immunoassay (inhibition of CSF-1R phosphorylation of tyrosine on synthetic CSF-1R555-568 peptide); assay type: biochemical; conditions: CSF-1R fluorescence polarization assay; 0.7 nM CSF-1R, 1 mM ATP, 308 μM peptide; mean of at least three determinations
Sequence of CSF-1R (P07333 20-972): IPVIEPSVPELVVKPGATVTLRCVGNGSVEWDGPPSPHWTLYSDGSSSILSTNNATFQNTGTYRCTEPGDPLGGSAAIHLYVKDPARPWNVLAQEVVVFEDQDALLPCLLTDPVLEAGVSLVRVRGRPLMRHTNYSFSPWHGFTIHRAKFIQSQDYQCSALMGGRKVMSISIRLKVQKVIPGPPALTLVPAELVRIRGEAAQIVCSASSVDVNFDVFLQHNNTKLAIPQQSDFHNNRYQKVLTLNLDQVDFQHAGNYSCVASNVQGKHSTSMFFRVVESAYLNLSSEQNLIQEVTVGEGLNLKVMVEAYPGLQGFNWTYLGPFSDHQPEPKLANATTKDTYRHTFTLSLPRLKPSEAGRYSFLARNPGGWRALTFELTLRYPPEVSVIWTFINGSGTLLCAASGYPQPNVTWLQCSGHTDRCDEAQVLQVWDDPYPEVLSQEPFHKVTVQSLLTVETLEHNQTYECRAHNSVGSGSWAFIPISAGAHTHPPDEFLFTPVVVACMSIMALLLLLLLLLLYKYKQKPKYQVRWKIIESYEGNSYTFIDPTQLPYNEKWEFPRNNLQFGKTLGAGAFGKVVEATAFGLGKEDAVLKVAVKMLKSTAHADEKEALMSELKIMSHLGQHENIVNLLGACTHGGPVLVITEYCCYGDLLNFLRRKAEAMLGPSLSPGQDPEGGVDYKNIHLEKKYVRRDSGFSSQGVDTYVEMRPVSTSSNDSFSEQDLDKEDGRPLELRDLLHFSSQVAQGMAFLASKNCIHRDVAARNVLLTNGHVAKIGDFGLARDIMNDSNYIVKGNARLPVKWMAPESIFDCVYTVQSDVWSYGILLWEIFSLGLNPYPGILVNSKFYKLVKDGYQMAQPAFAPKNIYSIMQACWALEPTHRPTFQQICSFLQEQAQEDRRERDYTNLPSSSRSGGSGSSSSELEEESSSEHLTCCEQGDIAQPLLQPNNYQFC
Protocol: Fluorescence Polarization Competition Immunoassay
The kinase reaction was initiated by adding 1 μL of 10 mM ATP in assay buffer. […] Positive and negative control wells were included on each plate, where 4% DMSO in assay buffer was substituted for the compound; in addition, positive control wells received 1.2 μL of 50 mM EDTA before the start of the reaction.
The plates were covered and incubated at room temperature for 80 min. Reactions were stopped by addition of 1.2 μL of 50 mM EDTA. […] The plates were covered, incubated for 30 min at room temperature, and the fluorescence polarization was read on an Analyst plate reader (Molecular Devices). […] Reported IC50 values are the mean of three of at least three determinations.

| IC50 (CSF-1R) | Compound | IC50 [1] |
| --- | --- | --- |
| – | CN1CC(c2ccc(NC(=O)c3cc(C#N)c[nH]3)c(C3=CCCCCC3)c2)CN(C)C1=O [Example 10, 4-Cyano-1H-pyrrole-2-carboxylic acid [2-cyclohept-1-enyl-4-(1,3-dimethyl-2-oxo-hexahydro-pyrimidin-5-yl)-phenyl]-amide] | 100 nM |
| – | CN1CC(c2ccc(NC(=O)c3nc(C#N)c[nH]3)c(C3=CCC(C)(C)CC3)c2)CN(C)C1=O [Example 8, 4-Cyano-1H-imidazole-2-carboxylic acid [2-(4,4-dimethyl-cyclohex-1-enyl)-4-(1,3-dimethyl-2-oxo-hexahydro-pyrimidin-5-yl)-phenyl]-amide] | 3 nM |
| 10 nM | N#Cc1c[nH]c(C(=O)Nc2cc(CO)c(C3CNS(=O)(=O)NC3)cc2C2=CCCCC2)n1 [Example 6, 4-Cyano-1H-imidazole-2-carboxylic acid [2-cyclohex-1-enyl-4-(1,1-dioxo-1λ^6-[1,2,6]thiadiazinan-4-yl)-5-hydroxymethyl-phenyl]-amide] | 60 nM |
| – | CC1(C)CC=C(c2cc(C3CC(=O)NC(=O)C3)ccc2NC(=O)c2nc(C#N)c[nH]2)CC1 [Example 3, 4-Cyano-1H-imidazole-2-carboxylic acid [2-(4,4-dimethyl-cyclohex-1-enyl)-4-(2,6-dioxo-piperidin-4-yl)-phenyl]-amide] | 7 nM |
| – | N#Cc1c[nH]c(C(=O)Nc2ccc(C3CC(=O)NC(=O)C3)cc2C2=CCCCC2)n1 [Example 1, 4-Cyano-1H-imidazole-2-carboxylic acid [2-cyclohex-1-enyl-4-(2,6-dioxo-piperidin-4-yl)-phenyl]-amide] | 10 nM |
| > 300 nM | N#Cc1c[nH]c(C(=O)Nc2ccc(C3COC(=O)OC3)cc2C2=CCCCC2)n1 [Example 15, 4-Cyano-1H-imidazole-2-carboxylic acid[2-cyclohex-1-enyl-4-(2-oxo-[1,3]dioxan-5-yl)-phenyl]-amide] | – |
| – | CN1C(=O)CC(c2ccc(NC(=O)c3nc(C#N)c[nH]3)c(C3=CCCCC3)c2)CC1=O [Example 14, 4-Cyano-1H-imidazole-2-carboxylic acid[2-cyclohex-1-enyl-4-(1-methyl-2,6-dioxo-piperidin-4-yl)-phenyl]-amide] | 4 nM |
| – | N#Cc1c[nH]c(C(=O)Nc2ccc(C3CNS(=O)(=O)NC3)cc2C2=CCCCC2)n1 [Example 5, 4-Cyano-1H-imidazole-2-carboxylic acid [2-cyclohex-1-enyl-4-(1,1-dioxo-1λ^6-[1,2,6]thiadiazinan-4-yl)-phenyl]-amide] | 60 nM |
| – | CN1CC(c2ccc(NC(=O)c3nc(C#N)c[nH]3)c(C3=CCCCCC3)c2)CN(C)C1=O [Example 9, 4-Cyano-1H-imidazole-2-carboxylic acid [2-cyclohept-1-enyl-4-(1,3-dimethyl-2-oxo-hexahydro-pyrimidin-5-yl)-phenyl]-amide] | 5 nM |
| – | CN1CC(c2ccc(NC(=O)c3nc(C#N)c[nH]3)c(C3=CCCCC3)c2)CN(C)S1(=O)=O [Example 11, 4-Cyano-1H-imidazole-2-carboxylic acid [2-cyclohex-1-enyl-4-(2,6-dimethyl-1,1-dioxo-1λ^6-[1,2,6]thiadiazinan-4-yl)-phenyl]-amide] | 2 nM |
| 2 nM | CS(=O)(=O)N=C1NCC(c2ccc(NC(=O)c3nc(C#N)c[nH]3)c(C3=CCCCC3)c2)CN1 (stereo not drawn) [Example 13, 4-Cyano-1H-imidazole-2-carboxylic acid[2-cyclohex-1-enyl-4(2methanesulfonylimino-hexahydro-pyrimidin-5-yl)-phenyl]-amide] | 100 nM |
| 3 nM | N#CN=C1NCC(c2ccc(NC(=O)c3nc(C#N)c[nH]3)c(C3=CCCCC3)c2)CN1 (stereo not drawn) [Example 12, 4-Cyano-1H-imidazole-2-carboxylic acid[4-(2-cyanoimino-hexahydro-pyrimidin-5-yl)-2-cyclohex-1-enyl-phenyl]-amide] | 40 nM |
